The subject of test [1] is Mycobacterium tuberculosis. Briefly: Antimycobacterial activity against Mycobacterium tuberculosis H37Rv transformed with pSMT1 luciferase reporter plasmid assessed as growth inhibition after 6 days by luminometry. It is filed as functional. The following applies: for GI50: Mycobacterium tuberculosis, H37Rv, 144 h.
In test [2] the test system is Mycobacterium tuberculosis. Put plainly: Antimicrobial activity against multi-drug resistant Mycobacterium tuberculosis LAM-1 strain clinical isolate assessed as critical concentration to induce 99% growth reduction at 10 to 20 ug/mL by BACTEC_MGIT_960-TB detection system. It is filed as functional.
Test [3] deals with Mycobacterium tuberculosis. Briefly: Antimicrobial activity against multi-drug resistant Mycobacterium tuberculosis LAM-1 strain clinical isolate assessed as growth reduction at 0.1 ug/mL by BACTEC_MGIT_960-TB detection system. Format: functional, organism-based.
Test [4] deals with Mycobacterium tuberculosis. Put plainly: Antimicrobial activity against multi-drug resistant Mycobacterium tuberculosis LAM-1 strain clinical isolate assessed as growth reduction by BACTEC_MGIT_960-TB detection system. It is filed as functional.

We go through 23 compounds from ChEMBL document CHEMBL3352001, “2,4-Dialkyl-8,9,10,11-tetrahydrobenzo[g]pyrimido[4,5-c]isoquinoline-1,3,7,12(2H,4H)-tetraones as new leads against Mycobacterium tuberculosis” (Eur J Med Chem, 2014).

The structures appear in SMILES notation. Values after ≈ are worked out from the molar mass of the structure shown. Values joined by “and” are separate entries in the source; they are usually repeats but may differ in a detail not shown here. Equal entries are not always repeated. Active and inactive are the calls of the source. The calls are words filed in the database; no cut-off is given here.

One may read the GI50 as the concentration at which growth is held to half of that of the control. For `CCn1c(=O)c2c3c(cnc2n(CC)c1=O)C(=O)C1=C(C3=O)C2CCC1C2` (stereo not drawn), in test [1], the GI90 was determined as 5.32 µg/mL (≈ 14.6 µM), the GI99 amounted to 9.21 µg/mL and the GI50 worked out at 1.69 µg/mL (≈ 4.63 µM).

Regarding `CC(C)Cn1c(=O)c2c3c(cnc2n(CC(C)C)c1=O)C(=O)C1=C(C3=O)C2CCC1C2` (stereo not drawn), in test [1], the GI90 stood at 5.3 µg/mL (≈ 12.6 µM), the GI99 amounted to 11.01 µg/mL and the GI50 is 2.08 µg/mL (≈ 4.93 µM).

On to `CCCCCCCn1c(=O)c2c3c(cnc2n(CCCCCCC)c1=O)C(=O)C1=C(C3=O)C2CCC1CC2`, for which, in test [1], the GI90 came to 3.78 µg/mL (≈ 7.27 µM), the GI99 came to 6.89 µg/mL and the GI50 came out at 1.32 µg/mL (≈ 2.54 µM). Besides, the INH in test [2] was 10 µg/mL.

Turning to `NNC(=O)c1ccncc1` [ISONIAZID], the inhibition result in test [3] was “inactive”. For the same compound, in test [1], the GI99 was 0.04 µg/mL and 0.06 µg/mL; the GI50 was 0.01 µg/mL (≈ 0.0729 µM).

As for `CCCCn1c(=O)c2c3c(cnc2n(CCCC)c1=O)C(=O)C1=C(C3=O)C2CCC1C2` (stereo not drawn), in test [1], the GI90 was 4.59 µg/mL (≈ 10.9 µM), the GI99 came out at 7.23 µg/mL and the GI50 was determined as 1.46 µg/mL (≈ 3.46 µM).

Regarding `CCCCCCn1c(=O)c2c3c(cnc2n(CCCCCC)c1=O)C(=O)C1=C(C3=O)C2CCC1CC2`, in test [1], the GI90 is 6.13 µg/mL (≈ 12.5 µM), the GI99 turned out to be 14.89 µg/mL and the GI50 was determined as 1.36 µg/mL (≈ 2.77 µM).

One may read the MIC as the lowest concentration that inhibits growth of the organism. In the case of `CC(C)n1c(=O)c2c3c(cnc2n(C(C)C)c1=O)C(=O)C1=C(C3=O)C2CCC1C2` (stereo not drawn), the MIC in test [4] was found to be 5 µg/mL (≈ 12.7 µM). In test [1], the GI90 was found to be 1.5 µg/mL (≈ 3.81 µM), the GI99 is 3 µg/mL and the GI50 is 0.52 µg/mL (≈ 1.32 µM). Moreover, the INH in test [2] is 5 µg/mL.

Regarding `CC(C)n1c(=O)c2c3c(cnc2n(C(C)C)c1=O)C(=O)C1=C(C3=O)C2CCC1CC2`, in test [1], the GI90 stood at 2.32 µg/mL (≈ 5.69 µM), the GI99 amounted to 4.89 µg/mL and the GI50 came out at 0.73 µg/mL (≈ 1.79 µM). Further, the INH in test [2] came out at 10 µg/mL.

As to `CCn1c(=O)c2c3c(cnc2n(CC)c1=O)C(=O)C1=C(C3=O)C2CCC1CC2`, in test [1], the GI90 amounted to 4.33 µg/mL (≈ 11.4 µM), the GI99 turned out to be 12.06 µg/mL and the 50% growth inhibitory concentration (GI50) turned out to be 2.55 µg/mL (≈ 6.72 µM).

For `CC(C)C1CCC(=O)c2c1ncc1c2C(=O)C2=C(C1=O)C1CCC2C1` (stereo not drawn), in test [1], the GI99 was 24.66 µg/mL and 48.06 µg/mL; the concentration for 50% growth inhibition (GI50) came out at 5.55 µg/mL (≈ 16.5 µM).

On to `Cn1c(=O)c2c3c(cnc2n(C)c1=O)C(=O)C1=C(C3=O)C2CCC1CC2`, for which, in test [1], the GI90 came out at 6.98 µg/mL (≈ 19.9 µM), the GI99 came out at 15.43 µg/mL and the 50% growth inhibitory concentration (GI50) came to 2.83 µg/mL (≈ 8.05 µM).

Regarding `CCCCCn1c(=O)c2c3c(cnc2n(CCCCC)c1=O)C(=O)C1=C(C3=O)C2CCC1CC2`, in test [1], the GI90 is 4.78 µg/mL (≈ 10.3 µM), the GI99 amounted to 13.37 µg/mL and the concentration for 50% growth inhibition (GI50) came out at 1.49 µg/mL (≈ 3.21 µM).

With `CC(C)CCn1c(=O)c2c3c(cnc2n(CCC(C)C)c1=O)C(=O)C1=C(C3=O)C2CCC1CC2`, in test [1], the GI90 is 10.33 µg/mL (≈ 22.3 µM), the GI99 came out at 22.88 µg/mL and the GI50 was 4.9 µg/mL (≈ 10.6 µM).

For the compound `CCCCCCCn1c(=O)c2c3c(cnc2n(CCCCCCC)c1=O)C(=O)C1=C(C3=O)C2CCC1C2` (stereo not drawn), in test [1], the GI90 was found to be 2.45 µg/mL (≈ 4.85 µM), the GI99 worked out at 5.57 µg/mL and the GI50 came out at 0.63 µg/mL (≈ 1.25 µM). Besides, the INH in test [2] was 10 µg/mL.

As for `CCCCCCn1c(=O)c2c3c(cnc2n(CCCCCC)c1=O)C(=O)C1=C(C3=O)C2CCC1C2` (stereo not drawn), in test [1], the GI90 was found to be 5.43 µg/mL (≈ 11.4 µM), the GI99 stood at 11.6 µg/mL and the GI50 was 1.22 µg/mL (≈ 2.55 µM).

As for `CC(C)CCn1c(=O)c2c3c(cnc2n(CCC(C)C)c1=O)C(=O)C1=C(C3=O)C2CCC1C2` (stereo not drawn), in test [1], the GI90 worked out at 8.11 µg/mL (≈ 18 µM), the GI99 was 16.32 µg/mL and the GI50 was found to be 2.41 µg/mL (≈ 5.36 µM).

With `CC(C)C1CCc2ncc3c(c2C1=O)C(=O)C1=C(C3=O)C2CCC1C2` (stereo not drawn), in test [1], the GI90 was found to be 39.2 µg/mL (≈ 117 µM), the GI99 is greater than 100 µg/mL and the GI50 is 20.4 µg/mL (≈ 60.8 µM).

For `CCCCCn1c(=O)c2c3c(cnc2n(CCCCC)c1=O)C(=O)C1=C(C3=O)C2CCC1C2` (stereo not drawn), in test [1], the GI90 is 4.09 µg/mL (≈ 9.1 µM), the GI99 was determined as 9.54 µg/mL and the 50% growth inhibitory concentration (GI50) is 1.26 µg/mL (≈ 2.8 µM).

For `CCCn1c(=O)c2c3c(cnc2n(CCC)c1=O)C(=O)C1=C(C3=O)C2CCC1C2` (stereo not drawn), in test [1], the GI90 is 4.28 µg/mL (≈ 10.9 µM), the GI99 is 6.23 µg/mL and the GI50 was found to be 1.73 µg/mL (≈ 4.4 µM).

In the case of `CC(C)Cn1c(=O)c2c3c(cnc2n(CC(C)C)c1=O)C(=O)C1=C(C3=O)C2CCC1CC2`, in test [1], the GI90 came to 9.31 µg/mL (≈ 21.4 µM), the GI99 was determined as 12.28 µg/mL and the GI50 amounted to 4.36 µg/mL (≈ 10 µM).

`CCCn1c(=O)c2c3c(cnc2n(CCC)c1=O)C(=O)C1=C(C3=O)C2CCC1CC2`: in test [1], the GI90 was found to be 5.98 µg/mL (≈ 14.7 µM), the GI99 was found to be 7.34 µg/mL and the concentration for 50% growth inhibition (GI50) turned out to be 2.59 µg/mL (≈ 6.36 µM).

As for `CCCCn1c(=O)c2c3c(cnc2n(CCCC)c1=O)C(=O)C1=C(C3=O)C2CCC1CC2`, in test [1], the GI90 was 5.2 µg/mL (≈ 11.9 µM), the GI99 was 9.6 µg/mL and the concentration for 50% growth inhibition (GI50) was found to be 1.84 µg/mL (≈ 4.22 µM).

On to `Cn1c(=O)c2c3c(cnc2n(C)c1=O)C(=O)C1=C(C3=O)C2CCC1C2` (stereo not drawn), for which, in test [1], the GI90 came out at 5.87 µg/mL (≈ 17.4 µM), the GI99 was determined as 10.43 µg/mL and the GI50 was 1.58 µg/mL (≈ 4.68 µM).
